# Results as given in patent US5529918A, “Process for preparing neuraminidase” (Fidia S.p.A., priority 1991, dated 1996).
# System: neuraminidase from Arthrobacter Sp. (Arthrobacter ureafaciens VR-1, NCIMB 40717), purified, molecular weight 55,000-60,000
# Test: Neuraminidase enzymatic activity and inhibition (thiobarbituric acid method, released NANA)
# Format: biochemical
# Details: inhibition of the neuraminidase by NANA; GDia as substrate in the activity test
# Description: The enzymatic activity of the neuraminidase is determined at the saturation levels of the substrate concentration, corresponding to 5 times the Km value.
# The released product is measured by employing the colorimetric technique (thiobarbituric acid method). For instance, when the neuraminidase enzyme and its substrate (a ganglioside like GDia) are incubated for 5-10 minutes and the NANA, hydrolyzed from the substrate, is employed for evaluating the enzymatic activity, the NANA released in the solution undergoes a series of reactions, in order to determine its actual amount.
# Since NANA is also employed for obtaining the culture media of the steady state wherefrom the filtrate is extracted, a few check reactions are carried out, in order to ascertain that the measured NANA be the one coming from the reaction between enzyme and substrate and not the one coming as a residue from the original culture.
# For instance, a few tests are carried out on 3 test-tubes, as reported hereinbelow. […]
# In the first test-tube (S) there should be no NANA. Should NANA be retrieved in the second test-tube (B), its spectrophotometric reading is subtracted from the reading obtained from the reaction in test-tube three (E). The enzyme activity is therefore indirectly measured as the amount of hydrolized NANA per minute at pH 5.3 and at 37° C., using GDia as the substrate. […]
smiles,measurement,value
"CC(=O)N[C@H]1[C@H]([C@H](O)[C@H](O)CO)OC(O)(C(=O)O)C[C@@H]1O (stereo partly shown) [NANA, N-acetyl-neuraminic acid]",Ki,~300 µM
